Data on three molecules can be found in article PMC10487733, “Synthesis, Conformational Analysis and Antitumor Activity of the Naturally Occurring Antimicrobial Medium-Length Peptaibol Pentadecaibin and Spin-Labeled Analogs Thereof” (International Journal of Molecular Sciences, 2023).

Data set [1] has as its system MDA-MB-231 (human triple-negative breast cancer). To be noted: MDA-MB-231 cells, 24 h exposure to 0–20 µM peptaibol, MTS read-out at 490 nm; value [95% CI]; at least three independent experiments in triplicate.
The nature of data set [2]: Circular dichroism in SDS micelles (helix aggregation index). The data set is classed as physicochemical. The note with it: CD in 100 mM aqueous SDS micelles, 25 °C, 1 mm cell, 16 scans; ratio is ≈ 0.9 in CH3OH. Here is the method:
We performed a CD analysis of the peptides in methanol and in the presence of micelles of sodium dodecyl sulfate (SDS) 100 mM in water.
CD spectra of α-helical peptides feature two negative and one positive maxima centered at about 208, 222 and 195 nm, respectively. Aib-containing peptides are known to fold in 3_10-helices, which is common for peptaibols. In this case, the first negative maximum shifts from 208 to about 205 nm.
CD measurements were acquired on a Jasco J-1500 spectrophotometer (Tokyo, Japan), using a 1 mm pathlength quartz cell (Hellma Analytics, Munich, Germany). Methanol or a solution of sodium dodecyl sulfate (SDS) 100 mM in milliQ water was used as solvent. An amount of 1 mM of solutions of the three peptides in each of the two solvents of choice was prepared. Then, 300 µL of each solution was inserted in the 1 mm quartz cell and the cell put into the cell holder of the Jasco J-1500 instrument. The measurements were performed at 25 °C, acquiring 16 scans. The temperature was kept constant by means of an external Peltier thermostat (ThermoHaake C25P, Karlbruhe, Germany).

For data set [3], the system named is MUG-Mel2 (human melanoma). The note with it: MUG-Mel2 cells, 24 h exposure to 0–20 µM peptaibol, MTS read-out at 490 nm; CI not given; at least three independent experiments in triplicate.
The subject of data set [4] is SK-OV-3 (human ovarian adenocarcinoma). To be noted: SK-OV-3 cells, 24 h exposure to 0–20 µM peptaibol, MTS read-out at 490 nm; value [95% CI]; at least three independent experiments in triplicate.
In data set [5] the test system is A549 (human lung adenocarcinoma). The note with it: A549 cells, 24 h exposure to 0–20 µM peptaibol, MTS read-out at 490 nm; value [95% CI]; at least three independent experiments in triplicate.
Data set [6] in a line: Peptide-induced carboxyfluorescein leakage from PE/PG liposomes. The note with it: PE/PG 7:3 SUVs 0.06 mM, HEPES pH 7.4, 20 min incubation, fluorescence 488/520 nm, relative to Triton X-100; qualitative; more efficient than trichogin GA IV, particularly on these SUVs. As for the experimental part:
(§1) The assay was carried out on model liposomes (small unilamellar vesicles, SUV) of two different compositions, namely phosphatidylcholine/cholesterol (PC/Ch) 7:3 and phosphatidylethanolamine/phosphatidylglycerol (PE/PG) 7:3. Using fluorescence measurements, the ability of the peptides to induce the release of the carboxyfluorescein (CF) dye previously included within SUVs was evaluated.
(§2) The chosen lipid compositions result in different net surface charges on the SUVs. […] On the other hand, when the peptide perturbs the artificial membrane, it causes the leakage of the CF, and therefore leads to an increase in fluorescence intensity. The maximum value of fluorescence intensity, corresponding to the complete destruction of the vesicles via the surfactant Triton X-100, was used as a reference. […]
(§3) Phosphatidylcholine (PC), phosphatidylglycerol (PG), phosphatidylethanolamine (PE) and cholesterol (Ch) were purchased from Avanti Polar Lipids (Alabaster, AL, USA). […] To evaluate the peptide ability to modulate membrane permeability, CF leakage from the liposomes was measured via fluorescence spectroscopy on a Perkin Elmer (Waltham, MA, USA) MPF-66 spectrofluorimeter. The procedure was as follows: 2.5 mL of each SUV at 0.06 mM concentration was inserted in twelve disposable fluorescence cuvettes and fluorescence was recorded (λexc = 488 nm) for all of them at 520 nm (F0). […]

Data set [7] can be described thus: Peptide-induced carboxyfluorescein leakage from PC/Ch liposomes. The note with it: PC/Ch 7:3 SUVs 0.06 mM, HEPES pH 7.4, 20 min incubation, fluorescence 488/520 nm, relative to Triton X-100; qualitative; more efficient than trichogin GA IV. Here is the method: as §1, §2, §3

pIC50: −log10 of the molar value. Where a SMILES comes first, the peptide text is derived from it. [ ]: non-standard residue; d: D form. TOAC = CC1(C)CC(N)(C(=O)O)CC(C)(C)N1[O]; Phe(ol) = N[C@H](CO)Cc1ccccc1; Aib = CC(C)(N)C(=O)O

For the molecule `CC(=O)NC1(C(=O)NCC(=O)N[C@@H](C)C(=O)N[C@@H](CC(C)C)C(=O)NC(C)(C)C(=O)N[C@@H](CCC(N)=O)C(=O)NC(C)(C)C(=O)N[C@H](C(=O)NC(C)(C)C(=O)N[C@@H](C)C(=O)NC(C)(C)C(=O)NC(C)(C)C(=O)NC(C)(C)C(=O)N[C@@H](CCC(N)=O)C(=O)N[C@H](CO)Cc2ccccc2)C(C)C)CC(C)(C)N([O])C(C)(C)C1` [To1-VX, [Toac^1]-pentadecaibin] (Ac-[TOAC]GAL[Aib]Q[Aib]V[Aib]A[Aib][Aib][Aib]Q[Phe(ol)]), the pIC50 in data set [1] was 5.10; in data set [3], 5.00; in data set [4], 5.02; in data set [5], 4.96. The “ratio R = [θ]222/[θ]208 (index of aggregation between helices)” value in data set [2] was “greater than 1”.

On to `CC(=O)NC(C)(C)C(=O)NCC(=O)N[C@@H](C)C(=O)N[C@@H](CC(C)C)C(=O)NC(C)(C)C(=O)N[C@@H](CCC(N)=O)C(=O)NC(C)(C)C(=O)N[C@H](C(=O)NC(C)(C)C(=O)N[C@@H](C)C(=O)NC(C)(C)C(=O)NC(C)(C)C(=O)NC(C)(C)C(=O)N[C@@H](CCC(N)=O)C(=O)N[C@H](CO)Cc1ccccc1)C(C)C` [VX, pentadecaibin] (Ac-[Aib]GAL[Aib]Q[Aib]V[Aib]A[Aib][Aib][Aib]Q[Phe(ol)]), for which the pIC50 in data set [1] was 5.06; in data set [3], 4.85; in data set [4], 4.96; in data set [5] it was 5.04. Also, the “ratio R = [θ]222/[θ]208 (index of aggregation between helices)” value in data set [2] is recorded as “greater than 1”. The “membrane activity (CF leakage from SUVs)” value in data set [6] and in data set [7] was “equally membrane active” in each case.

Regarding `CC(=O)NC(C)(C)C(=O)NCC(=O)N[C@@H](C)C(=O)N[C@@H](CC(C)C)C(=O)NC(C)(C)C(=O)N[C@@H](CCC(N)=O)C(=O)NC(C)(C)C(=O)N[C@H](C(=O)NC(C)(C)C(=O)N[C@@H](C)C(=O)NC1(C(=O)NC(C)(C)C(=O)NC(C)(C)C(=O)N[C@@H](CCC(N)=O)C(=O)N[C@H](CO)Cc2ccccc2)CC(C)(C)N([O])C(C)(C)C1)C(C)C` [To11-VX, [Toac^11]-pentadecaibin] (Ac-[Aib]GAL[Aib]Q[Aib]V[Aib]A[TOAC][Aib][Aib]Q[Phe(ol)]), the pIC50 in data set [1] was 5.09; in data set [3] it was 4.87; in data set [5], 5.01. For the same molecule, the “ratio R = [θ]222/[θ]208 (index of aggregation between helices)” value in data set [2] is “greater than 1”.

One may read the pIC50 as the negative decadic logarithm of the IC50, by convention in mol/L.
